Source: patent US11878074B2, “Methods of use of emulsion formulations of an NK-1 receptor antagonist” (Heron Therapeutics, Inc., priority 2016, dated 2024)

Experiment: Pharmacokinetics of aprepitant emulsion, intravenous injection, plasma LC-MS/MS
Format: in vivo, Sprague-Dawley rats
Conditions: rat, i.v., equivalent to 14 mg/kg aprepitant, by the 3-hour time point
Protocol: Blood from all rats was collected at the appropriate time intervals and processed to plasma by centrifugation. Plasma samples were analyzed by LC-MS/MS for aprepitant and fosaprepitant, as appropriate. […] The curves indicate the initial aprepitant level reached immediately after injection of the aprepitant emulsion was almost 3 times higher than the initial aprepitant level reached immediately after injection of the fosaprepitant solution.

Structure (SMILES): C[C@@H](O[C@H]1OCCN(Cc2nc(O)n(P(=O)(O)O)n2)[C@H]1c1ccc(F)cc1)c1cc(C(F)(F)F)cc(C(F)(F)F)c1 [fosaprepitant]
- Plasma levels of aprepitant, emulsion versus fosaprepitant solution: essentially the same
